The text below walks through data of patent US9492508B2, “Parathyroid hormone analogs and uses thereof” (The General Hospital Corporation, priority 2010, dated 2016).

Ends that are not written are not given here.

The target of one data set is T1, human PTHR1 (RG) (Homo sapiens, UniProt Q03431).
T1 construct: expressed in transfected cells; host or cells: COS-7 cells (membranes)
T1 sequence (Q03431 27-593): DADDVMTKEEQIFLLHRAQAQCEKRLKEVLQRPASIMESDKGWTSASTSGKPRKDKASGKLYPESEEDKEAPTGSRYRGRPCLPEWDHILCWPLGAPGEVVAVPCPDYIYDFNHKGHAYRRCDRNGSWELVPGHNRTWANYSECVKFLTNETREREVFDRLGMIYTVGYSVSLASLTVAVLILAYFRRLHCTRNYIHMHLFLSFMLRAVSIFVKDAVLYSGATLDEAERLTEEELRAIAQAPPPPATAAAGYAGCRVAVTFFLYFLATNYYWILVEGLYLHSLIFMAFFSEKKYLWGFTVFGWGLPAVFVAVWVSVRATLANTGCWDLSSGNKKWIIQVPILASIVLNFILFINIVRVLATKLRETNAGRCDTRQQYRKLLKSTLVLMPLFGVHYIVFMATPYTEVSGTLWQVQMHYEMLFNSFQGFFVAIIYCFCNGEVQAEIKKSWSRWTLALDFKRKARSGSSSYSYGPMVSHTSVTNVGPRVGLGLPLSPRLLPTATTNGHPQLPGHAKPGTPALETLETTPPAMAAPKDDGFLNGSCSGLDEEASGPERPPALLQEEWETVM
Description: Competition binding, RG conformation of human PTHR1 (COS-7 membranes). The conditions noted are these: mean of 3 experiments, read-out: Binding human PTHR1 IC50 (Log M) RG (converted). How it is done:
Briefly, the R^0 form of the receptor can be favored by addition of the non-hydrolyzable nucleotide analog GTPγS. The RG form can be favored, for example, by co-transfection of cells with a negative dominant Gαs subunit. […] Data are means of four experiments, each performed in duplicate. Curves were fit to the data using Graph-Pad Prism 4.0.
Here, competition binding assays for the R^0 and RG PTHR1 conformation were performed in membranes prepared from transfected COS-7 cells, as described by Dean et al., Mol Endocrinol 22:156-66, 2008. Data are means of three experiments, each performed in duplicate. Curves were fit to the data using Graph-Pad Prism 4.0.

Data set [1] in a line: Solubility, in vitro precipitation assay (PBS pH 7.4 vs 10 mM acetic acid). In kind it is physicochemical. As to conditions: PBS pH 7.4, 1 h room temperature, FIG. 16A. How it is done: The relative solubilities of SP-PTH-AAK (SEQ ID NO:4) and SP-PTH (SEQ ID NO:11) in different buffers were assessed in an in vitro precipitation assay. For each polypeptide, two vials, each containing 50 μg of lyophilized polypeptide powder, were prepared; one vial was reconstituted in 50 μl of PBS at pH 7.4; the other vial was reconstituted in 50 μl of 10 mM acetic acid (pH 2.9) to give final concentrations of 1.0 mg/ml […]. After one hour at room temperature, the vials were centrifuged at 15,000×g for 2 minutes. The supernatant was removed and the protein content assayed using the Pierce BCA assay (Thermo Fischer Scientific, Rockford, Ill.). For each polypeptide, the content of the PBS sample was expressed as percent of the content of the corresponding acetic acid sample.

A short description of data set [2]: Repetitive daily dosing in TPTX rats (10 days). In kind it is in vivo, rat. The protocol:
FIGS. 20A-20D are graphs showing effects of once-daily SP-PTH on serum and urine Ca in TPTX rats. TPTX and sham-control rats were treated once daily, for 10 days, via sc. injection with either vehicle (Sham and TPTX) or SP-PTH (SEQ ID NO:11) (1, 2. 4, or 8 nmol/kg), or with 1,25(OH)2D (0.075 or 0.2 μg/kg. orn). After the last injection on day 10, the rats were placed in metabolic cages, and jugular vein blood was obtained at 8 (FIG. 20A) and 24 hrs (FIG. 20B); urine was collected for the intervals 0-8 (FIG. 20C) and 8-24 hrs (FIG. 20D); means±s.e.m: n=5; ′˜, P vs vehicle <005.
In therapeutic use in humans, one would administer doses sufficient to only normalize blood Ca. A key experiment is to determine if it is indeed feasible to normalize sCa following a repetitive dosing regimen. We thus performed the experiment of FIGS. 20A-2D, in which TPTX rats were treated daily for 10 days with SP-PTH at doses of 1, 2, 4 and 8 nmol/kg (s.c). For comparison, 1,25(OH)2-vitamin-D (calcitriol) at doses of 0.075 and 0.2 mcg/kg (oral) were used for the same time periods.

[3] abbreviates: 4 nmol/kg s.c. once daily 10 days.

Consider “AVAEIQLMHQRAKWIQDARRRAFLHKLIAEIHTAEI-OH [SP-PTH-AAK, [Ala^1,3,12,18,22,Gln^10,Arg^11,Trp^14,Lys^26]PTH(1-14)/PTHrP(15-36)]”, for which, at human PTHR1 (RG), the concentration for half-maximal inhibition (IC50) is 0.224 nM. For the same substance, in data set [1], the “solubility in PBS pH 7.4 (percent of acetic acid sample), in words” value is reported as “solubility similar to hPTH(1-34)NH2”.
For the substance “AVAEIQLMHQRAKWIQDLRRRFFLHHLIAEIHTAEI-OH [SP-PTH, [Ala^1,3,12,Gln^10,Arg^11,Trp^14]PTH(1-14)/PTHrP(15-36)]”, in data set [2] (setting [3]), the “sCa at 8 hours after the last injection” value is recorded as “avoided hypercalcemia” and the “sCa at 24 hours after the last injection” value is listed as “maintained near-normal sCa”. Further, in data set [2] (SP-PTH 4 nmol/kg s.c. once daily 10 days), the urine calcium excretion result was “low at all time points”.

By IC50 is commonly meant the concentration that gives 50% inhibition.
